According to PMC8162404, “Proteomimetic surface fragments distinguish targets by function” (Chemical Science, 2020):

The molecules below were run against T1, CaM (Bos taurus, UniProt P62157) (assay: Pull-down assay with immobilized protein and LSM libraries). Conditions: H12 library; 1:2 stoichiometry assumed; read-out: Surface mapping KD (apparent).
T1 construct: made in house; host or cells: E. coli BL21 (DE3)
Format: binding, bovine
Procedure: Pull-down assays with immobilized test proteins and foldameric LSM libraries were carried out. Proteins were equilibrated with LSM probes, and equilibrium bound fractions (FB) were determined from the unbound fractions measured by HPLC-MS methods. Hits were corrected with background binding of the resin. The protocol allowed all binding events to equilibrate irrespective of affinity, specificity, and binding kinetics. This was essential to judge overall druggability and promiscuity. Importantly, the concentration of protein and the total concentration of foldameric LSMs were equimolar, which minimized competition between the probes. This experimental setup approximated independent binding of individual library members. Results were visualized as heat maps of dissociation constants (Fig. 3).
Pull-down assay and data analysis
Pull-down assay. LSM sublibraries were screened separately as previously described.(2) Experiments were performed in the following buffers: (i) 20 mM pH 7.4 HEPES, 150 mM NaCl, 5 mM CaCl2 for CaM; (ii) 50 mM pH 7.4 HEPES, 150 mM NaCl, 1 mM TCEP, 1 mM CaCl2 for S100 proteins; (iii) 20 mM pH 7.4 HEPES, 150 mM NaCl, 1 mM TCEP for Gal-1 and (iv) 20 mM pH 7.4 HEPES, 150 mM NaCl for RecQ-WH. Assays were performed in paper filter spin cups (Thermo Scientific) with sample volumes of 100 µl. Hexahistidine-tagged proteins were immobilized on previously washed Co-NTA resin (TALON, Takara Bio USA, Inc., […]
LSM sublibrary was added, in which each of the 64 library members were used at a concentration of 1 µM. Samples were incubated at room temperature for 30 min with shaking at 100 rpm. Then, samples were centrifuged at 1000 rpm for 2 min and washed with 100 µl pull-down buffer to remove unbound compounds.
The control experiments were performed using the same compounds and the resin but without the immobilized protein. In case of competitive assays, competitor peptides were added to LSM sublibrary samples in 200 µM final concentration. In the case of Gal-1, lactose (competitor) was used in a concentration of 10 mM. Experiments were performed at least twice. Mean […]
LC-MS methods and parameters. HPLC/ESI-MS analysis was used to characterize the samples from the pull-down assay. LC-MS analysis was performed with a Thermo Scientific Dionex UltiMate 3000 HPLC system interfaced to an LTQ ion trap mass spectrometer (Thermo Electron Corp., San Jose, CA, USA). Samples were injected onto an Aeris Widepore XB-C18 (250 x 4.6 mm) analytical HPLC column using gradient elution 5-80 % solution B during 25 minutes. For pull-down samples, eluent composition was 0.1% acetic acid in distilled water (Solution A) and 0.1% acetic acid in acetonitrile (solution B). Mass spectra were acquired in full scan mode from 200 to 2000 m/z range. For overlapping peaks, selective reaction monitoring (SRM) was […]
MS data analysis. Thermo Xcalibur 2.2 software was used for peak identification and integration. The majority of the foldameric fragments could be resolved independently via HPLC-MS/MS measurements based on molecular weight, MS fragmentation pattern and retention time. Peaks of some foldamers with β3-hIle or β3-hLeu in position R2 could not be resolved, these were integrated and averaged. In the processing method, each sample component was associated to a chromatographic peak based on previously identified mass (m/z) and retention time (ref (2) and Table S7-10). Using ICIS peak detection algorithm, the general detection and integration criteria were: smoothing points: 5, baseline window: 80, area noise factor: 5, peak noise factor: 10. Using these processing setups, all raw data files were reprocessed together and analyzed. Errors in peak identification during the automatic processing were corrected manually.
Calculation of the discussed parameters
1. Bound fractions (FB.) were calculated from the HPLC-MS intensity loss of the LSM probes compared to the control where no protein was immobilized to the resin: […]

Structure (SMILES)	Kd [µM]
CC[C@H](C)[C@@H](CC(=O)N[C@H]1CCC[C@@H]1C(=O)N[C@H]1CCC[C@@H]1C(N)=O)NC(=O)[C@H]1CCC[C@@H]1NC(=O)[C@H]1CCC[C@@H]1NC(=O)C[C@H](CC(N)=O)NC(=O)[C@H]1CCC[C@@H]1NC(=O)[C@H]1CCC[C@@H]1N [H12 NI]	214
CC(C)C[C@@H](CC(=O)N[C@H]1CCC[C@@H]1C(=O)N[C@H]1CCC[C@@H]1C(N)=O)NC(=O)[C@H]1CCC[C@@H]1NC(=O)[C@H]1CCC[C@@H]1NC(=O)C[C@H](CC(N)=O)NC(=O)[C@H]1CCC[C@@H]1NC(=O)[C@H]1CCC[C@@H]1N [H12 NL]	214
CSCC[C@@H](CC(=O)N[C@H]1CCC[C@@H]1C(=O)N[C@H]1CCC[C@@H]1C(N)=O)NC(=O)[C@H]1CCC[C@@H]1NC(=O)[C@H]1CCC[C@@H]1NC(=O)C[C@H](CC(N)=O)NC(=O)[C@H]1CCC[C@@H]1NC(=O)[C@H]1CCC[C@@H]1N [H12 NM]	378
CC(C)[C@@H](CC(=O)N[C@H]1CCC[C@@H]1C(=O)N[C@H]1CCC[C@@H]1C(N)=O)NC(=O)[C@H]1CCC[C@@H]1NC(=O)[C@H]1CCC[C@@H]1NC(=O)C[C@H](CC(N)=O)NC(=O)[C@H]1CCC[C@@H]1NC(=O)[C@H]1CCC[C@@H]1N [H12 NV]	460
NC(=O)C[C@@H](CC(=O)N[C@H]1CCC[C@@H]1C(=O)N[C@H]1CCC[C@@H]1C(=O)N[C@H](CC(=O)N[C@H]1CCC[C@@H]1C(=O)N[C@H]1CCC[C@@H]1C(N)=O)Cc1ccc(O)cc1)NC(=O)[C@H]1CCC[C@@H]1NC(=O)[C@H]1CCC[C@@H]1N [H12 NY]	364
NC(=O)CC[C@@H](CC(=O)N[C@H]1CCC[C@@H]1C(=O)N[C@H]1CCC[C@@H]1C(=O)N[C@@H](CC(=O)O)CC(=O)N[C@H]1CCC[C@@H]1C(=O)N[C@H]1CCC[C@@H]1C(N)=O)NC(=O)[C@H]1CCC[C@@H]1NC(=O)[C@H]1CCC[C@@H]1N [H12 QD]	433
NC(=O)CC[C@@H](CC(=O)N[C@H]1CCC[C@@H]1C(=O)N[C@H]1CCC[C@@H]1C(=O)N[C@@H](CCC(=O)O)CC(=O)N[C@H]1CCC[C@@H]1C(=O)N[C@H]1CCC[C@@H]1C(N)=O)NC(=O)[C@H]1CCC[C@@H]1NC(=O)[C@H]1CCC[C@@H]1N [H12 QE]	474
CC[C@H](C)[C@@H](CC(=O)N[C@H]1CCC[C@@H]1C(=O)N[C@H]1CCC[C@@H]1C(N)=O)NC(=O)[C@H]1CCC[C@@H]1NC(=O)[C@H]1CCC[C@@H]1NC(=O)C[C@H](CCC(N)=O)NC(=O)[C@H]1CCC[C@@H]1NC(=O)[C@H]1CCC[C@@H]1N [H12 QI]	263
CC(C)C[C@@H](CC(=O)N[C@H]1CCC[C@@H]1C(=O)N[C@H]1CCC[C@@H]1C(N)=O)NC(=O)[C@H]1CCC[C@@H]1NC(=O)[C@H]1CCC[C@@H]1NC(=O)C[C@H](CCC(N)=O)NC(=O)[C@H]1CCC[C@@H]1NC(=O)[C@H]1CCC[C@@H]1N [H12 QL]	263
CSCC[C@@H](CC(=O)N[C@H]1CCC[C@@H]1C(=O)N[C@H]1CCC[C@@H]1C(N)=O)NC(=O)[C@H]1CCC[C@@H]1NC(=O)[C@H]1CCC[C@@H]1NC(=O)C[C@H](CCC(N)=O)NC(=O)[C@H]1CCC[C@@H]1NC(=O)[C@H]1CCC[C@@H]1N [H12 QM]	364
C[C@@H](O)[C@@H](CC(=O)N[C@H]1CCC[C@@H]1C(=O)N[C@H]1CCC[C@@H]1C(N)=O)NC(=O)[C@H]1CCC[C@@H]1NC(=O)[C@H]1CCC[C@@H]1NC(=O)C[C@H](CCC(N)=O)NC(=O)[C@H]1CCC[C@@H]1NC(=O)[C@H]1CCC[C@@H]1N [H12 QT]	447
NC(=O)CC[C@@H](CC(=O)N[C@H]1CCC[C@@H]1C(=O)N[C@H]1CCC[C@@H]1C(=O)N[C@H](CC(=O)N[C@H]1CCC[C@@H]1C(=O)N[C@H]1CCC[C@@H]1C(N)=O)Cc1ccc(O)cc1)NC(=O)[C@H]1CCC[C@@H]1NC(=O)[C@H]1CCC[C@@H]1N [H12 QY]	403
C[C@@H](CC(=O)N[C@H]1CCC[C@@H]1C(=O)N[C@H]1CCC[C@@H]1C(N)=O)NC(=O)[C@H]1CCC[C@@H]1NC(=O)[C@H]1CCC[C@@H]1NC(=O)C[C@H](CO)NC(=O)[C@H]1CCC[C@@H]1NC(=O)[C@H]1CCC[C@@H]1N [H12 SA]	482
